Results from patent publication US7795235B2, “Semi-soft c-class immunostimulatory oligonucleotides” (Coley Pharmaceutical GmbH, priority 2004, dated 2010).
Oligonucleotides are written 5' to 3', each unit as a sugar letter and its base; * is a phosphorothioate linkage, no mark a phosphodiester; rarer units and linkages stand in square brackets, end groups in braces. Plain capitals give the bases only. d = 2'-deoxy (DNA)

Tests used:
human TLR9 = biological target: T1, human TLR9 (Homo sapiens, UniProt Q9NR96); test: Stimulation of TLR9-transfected cells in vitro (luciferase readout); format: cell-based; conditions: quotient between highest value of all concentrations tested and medium control
T1 construct: expressed in transfected cells; host or cells: HEK 293
T1 sequence (Q9NR96 26-1032): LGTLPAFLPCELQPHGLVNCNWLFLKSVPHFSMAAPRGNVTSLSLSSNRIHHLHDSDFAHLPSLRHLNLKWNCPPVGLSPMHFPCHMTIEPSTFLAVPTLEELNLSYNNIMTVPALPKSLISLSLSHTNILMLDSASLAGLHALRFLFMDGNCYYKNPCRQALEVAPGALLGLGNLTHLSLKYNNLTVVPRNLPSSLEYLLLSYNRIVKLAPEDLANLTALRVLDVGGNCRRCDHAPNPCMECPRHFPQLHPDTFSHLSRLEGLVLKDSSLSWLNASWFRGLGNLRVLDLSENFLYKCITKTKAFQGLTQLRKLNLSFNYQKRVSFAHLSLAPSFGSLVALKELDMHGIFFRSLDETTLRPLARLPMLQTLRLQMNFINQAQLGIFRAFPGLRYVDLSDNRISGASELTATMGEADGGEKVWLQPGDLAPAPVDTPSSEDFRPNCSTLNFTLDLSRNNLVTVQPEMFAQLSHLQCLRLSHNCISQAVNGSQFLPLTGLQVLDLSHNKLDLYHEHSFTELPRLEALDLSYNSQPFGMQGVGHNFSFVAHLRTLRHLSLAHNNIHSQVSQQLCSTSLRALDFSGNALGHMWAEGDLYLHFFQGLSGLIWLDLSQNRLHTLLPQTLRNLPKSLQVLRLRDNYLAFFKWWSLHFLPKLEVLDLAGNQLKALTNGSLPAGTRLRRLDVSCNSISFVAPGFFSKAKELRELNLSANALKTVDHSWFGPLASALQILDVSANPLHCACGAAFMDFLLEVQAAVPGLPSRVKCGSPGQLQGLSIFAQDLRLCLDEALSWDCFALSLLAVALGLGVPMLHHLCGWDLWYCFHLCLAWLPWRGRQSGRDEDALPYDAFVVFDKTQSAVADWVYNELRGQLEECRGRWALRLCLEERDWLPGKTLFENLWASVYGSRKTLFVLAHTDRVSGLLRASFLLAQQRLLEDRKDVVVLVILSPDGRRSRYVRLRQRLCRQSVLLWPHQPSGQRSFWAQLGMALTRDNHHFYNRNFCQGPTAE
Experimental: Methods: HEK 293 cells transfected with human TLR9 were incubated with SEQ ID NO:1, SEQ ID NO:2, SEQ ID NO:3, SEQ ID NO:4, SEQ ID NO:5, or SEQ ID NO:6 for 16 hours. The signal was determined by a luciferase readout.
The EC50 was calculated using Sigma Plot (SigmaPlot 2002 for Windows version 8.0). The maximal stimulation index (max SI) was calculated as the quotient between the highest value of all concentrations tested for any ODN and the medium control.

human PBMC = test: Cytokine secretion (IL-10, TNF-alpha, interferon-gamma, IL-6) from human PBMC; format: cell-based; conditions: human PBMC (3 donors), 48 hours, ELISA, FIG. 27
Experimental: Peripheral blood buffy coat preparations from healthy male and female human donors were obtained from the Blood Bank of the University of Düsseldorf (Germany) and from these, PBMC were purified by centrifugation over Ficoll-Hypaque (Sigma). The purified PBMC were either used freshly (for most assays) or were suspended in freezing medium and stored at −70° C. When required, aliquots of these cells were thawed, washed and resuspended in RPMI 1640 culture medium (BioWhittaker, Belgium) supplemented with 5% (v/v) heat inactivated human AB serum (BioWhittaker, Belgium) or 10% (v/v) heat inactivated FCS, 2 mM L-glutamine (BioWhittaker), 100 U/ml penicillin and 100 μg/ml streptomycin (Invitrogen (Karlsruhe, Germany)).
Thawed or fresh PBMC were seeded on 48 well flat-bottom plates, or 96 well round-bottom plates, and incubated with ODN in the concentrations as indicated in a humidified incubator at 37° C. Culture supernatants were collected and if not used immediately, were frozen at −20° C. until required. Amounts of cytokines in the supernatants were assessed using commercially available ELISA Kits (Diaclone, USA) or in-house ELISAs developed using commercially available antibodies (from Becton Dickinson/Pharmingen or PBL). […]

BALB/c mice [1] = test: Antigen-induced IgE and IgG2a production in the mouse; format: in vivo; conditions: i.p. 1-1000 μg/kg, serum study day 18, FIG. 19
Experimental: Methods: Mice (male BALB/c) were sensitized on study days 0 and 7 with antigen (ovalbumin, 10 μg, i.p.) and aluminum hydroxide adjuvant Pierce Alum, i.p.). Mice received SEQ ID NO:2 or SEQ ID NO:7 on study days −2, 0, 5 and 7 (i.e. two days before each sensitization and on the day of sensitization). Mice were bled by cardiac puncture on study day 18. Serum was collected by centrifugation and assayed by ELISA for ovalbumin-specific IgE and IgG2a.

BALB/c mice [2] = test: Mouse model of allergic rhinitis (sneezing, nasal rubbing); format: in vivo; conditions: intranasal, 10 minute period after antigen challenge, FIG. 3
Experimental: Mice (male BALB/c) were sensitized on study days 0 and 7 with antigen (ovalbumin, 100 μg, i.p.) with aluminum hydroxide adjuvant (Pierce Alum i.p.). Mice were antigen challenged daily by exposure to intranasally-administered antigen (1 mg in 10 μl saline). The first challenge was on study day 14. SEQ ID NO:7 was administered intranasally twice. The first dose was given 2 days before the first antigen challenge. The second dose was given 7 days later. Alternatively, budesonide (an anti-inflammatory, synthetic corticosteroid) was administered intranasally daily. The first dose was given 2 days before the first antigen challenge. On each day, the budesonide dose was administered intranasally 4 hours before intranasal antigen challenge. Endpoints were measured on study day 26 (i.e. 7 days after the second dose of SEQ ID NO: 7. Nasal tissues were taken for histopathological assessment of inflammation. Separate mice received a final antigen challenge and incidences of sneezing and nasal rubbing were counted for a 10 minute period after challenge.
Methods: BALB/c mice were used to study the effects of SEQ ID NO:7 on symptoms of allergic rhinitis. […] Separate mice received a final antigen challenge and incidences of sneezing and nasal rubbing were counted for a 10 minute period after challenge.

guinea pigs [3] = test: Antigen-induced increase in nasal resistance in guinea pigs; format: in vivo, guinea pig; conditions: 0.03-1 mg/kg intranasal, over 40 minutes after challenge, FIG. 2
Experimental: Guinea pigs (male, Hartley) were sensitized with antigen (ovalbumin, 5 mg both intraperitoneal and subcutaneous) on study day 0. A boost sensitization (5 mg, intraperitoneal) was given on study day 4. Guinea pigs were antigen challenged by exposure to intranasally-administered antigen twice each week for two consecutive weeks. The first challenge was on study day 14. SEQ ID NO:7 (lot number AQE-03J-001-M, 0.03-1 mg/kg in […] saline) was administered intranasally once each week, two days before the first antigen challenge of the week. With the exception of the final challenge on study day 24, antigen challenge was with ovalbumin (1.5 mg/kg in 150 μl/kg saline). Animals were pretreated with mepyramine (10 mg/kg, intraperitoneal) 30 minutes before challenge to protect against histamine-induced anaphylaxis. On study day 24, guinea pigs were anesthetized to allow measurement of nasal resistance using a Buxco respiratory mechanics system and software. […] Nasal resistance was measured for 40 minutes after challenge.
Methods: To investigate the effects of the CpG oligodeoxynucleotide SEQ ID NO:7 against antigen induced increases in nasal resistance in the guinea pigs guinea pigs were sensitized with antigen, then antigen-challenged nasally. Nasal resistance was measured for 40 minutes after challenge.

guinea pigs [4] = test: Guinea pig AHR protocol (airway resistance and lung compliance); format: in vivo; conditions: guinea pigs, 10, 30, 100 or 300 μl/kg, i.t.
Experimental: Male guinea pigs were sensitized on study days 0 and 4 with antigen (ovalbumin, 0.5 ml, 1% OVA i.p./s.c.) with aluminum hydroxide adjuvant. Guinea pigs were antigen challenged by exposure to inhaled ovalbumin aerosol, twice each week for two consecutive weeks. The first challenge was on study day 13. CpG ODN or vehicle (saline, 20 μl) were administered intranasally once each week, two days before the first antigen challenge of the week. Airways hyperreactivity was assessed 24 hours after the last antigen challenge by measuring bronchoconstriction (increase in airway resistance) to intravenous methacholine. For each animal, a dose-response curve to methacholine was obtained, and airway reactivity was quantified as the area under the curve.
Method: Guinea pigs were sensitized as described in Example 10. The first challenge was on study day 13. Guinea pigs were given intranasally either carrier (saline), OVA alone, of concentrations of SEQ ID NO:7 of 10 μl/kg, 30 μl/kg, 100 μl/kg, or 300 μl/kg, i.t.
Method: Guinea pigs were sensitized as described in Example 10. The first challenge was on study day 13. Guinea pigs were given intranasally either carrier (saline), OVA alone, of concentrations of SEQ ID NO:2 of 10 μl/kg, 30 μl/kg, 100 μl/kg, or 300 μl/kg, i.t.

Substance: T*T*C_G*T*C_G*T*T*T*T_G*T*C_G*T*T (DNA TTCGTCGTTTTGTCGTT; DNA, backbone and methylation of C not given here; Stabilized (*) and phosphodiester or phosphodiester-like (_) linkages) [SEQ ID NO: 5]
- max SI (maximal stimulation index) (human TLR9): 13

Substance: T*T*T*C_G*T*C_G*T*T*T*C_G*T*C_G*T*T (DNA TTTCGTCGTTTCGTCGTT; DNA, backbone and methylation of C not given here; Stabilized (*) and phosphodiester or phosphodiester-like (_) linkages) [SEQ ID NO: 6]
- max SI (maximal stimulation index) (human TLR9): 11

Substance: T*C_G*T*C_G*A*C_G*T*T*C_G*G*C*G*C_G*C*G*C*C*G (DNA dT*dCdG*dT*dCdG*dA*dCdG*dT*dT*dCdG*dG*dC*dG*dCdG*dC*dG*dC*dC*dG) [SEQ ID NO: 1, Semi-soft class C CpG ODN]
- max SI (maximal stimulation index) (human TLR9): 22
- induction of IL-10 (human PBMC): dramatically higher induction

Substance: T*C_G*T*C_G*T*T*C_G*G*C*G*C*G*C*C*G (DNA TCGTCGTTCGGCGCGCCG; DNA, backbone and methylation of C not given here; Stabilized (*) and phosphodiester or phosphodiester-like (_) linkages) [SEQ ID NO: 3, Semi-soft class C CpG ODN]
- max SI (maximal stimulation index) (human TLR9): 16

Substance: T*C_G*T*C_G*T*T*T*T*G*A*C_G*T*T*T*T*G*T*C_G*T*T (DNA dT*dCdG*dT*dCdG*dT*dT*dT*dT*dG*dA*dCdG*dT*dT*dT*dT*dG*dT*dCdG*dT*dT) [SEQ ID NO: 7, Semi-soft class B CpG ODN included for comparison, reference compound]
- production of antigen (ovalbumin)-specific IgE (BALB/c mice [1]): suppressed
- production of antigen (ovalbumin)-specific IgG2a (BALB/c mice [1]): potentiated
- incidence of nasal rubbing (BALB/c mice [2]): suppressed
- incidence of sneezing (BALB/c mice [2]): suppressed
- antigen-induced increase in nasal resistance (guinea pigs [3]): significantly suppressed
- AUC-resistance (airway reactivity, area under the dose-response curve) (guinea pigs [4]): dose-dependent reduction

Substance: T*C_G*T*C_G*A*C_G*A*T*C_G*G*C*G*C_G*C*G*C*C*G (DNA TCGTCGACGATCGGCGCGCGCCG; DNA, backbone and methylation of C not given here; Stabilized (*) and phosphodiester or phosphodiester-like (_) linkages) [SEQ ID NO: 4]
- max SI (maximal stimulation index) (human TLR9): 14

Substance: 2 (T*C_G*T*C_G*T*C_G*T*T*C_G*G*C*G*C_G*C*G*C*C*G; as printed in the source, key not given here) [compound 2]
- induction of IL-10 (human PBMC): dramatically higher induction
